This is an account of results in ChEMBL document CHEMBL1150887, “Isolation, identification, and antioxidant activity of three stilbene glucosides newly extracted from vitis vinifera cell cultures” (J Nat Prod, 1998).

pIC50: −log10 of the molar value.

For test [1], the system named is Radical scavenging activity. As to the kind of experiment: Antioxidant activity assessed as DPPH radical scavenging activity. It counts as functional.
The nature of test [2]: Antioxidant activity against cupric ion-induced lipid peroxidation in human LDL by TBA assay. It counts as functional.

For the molecule `OC[C@H]1O[C@@H](Oc2cc(O)cc(/C=C/c3ccc(O)c(O)c3)c2)[C@H](O)[C@@H](O)[C@@H]1O`, the pIC50 in test [1] is 4.52; in test [2] it was 5.52.
The like results for `Oc1ccc(/C=C\c2cc(O)cc(O)c2)cc1` [CIS-RESVERATROL] were, in that order, 4.02 and 4.74.
`OC[C@H]1O[C@@H](Oc2ccc(/C=C/c3cc(O)cc(O)c3)cc2O)[C@H](O)[C@@H](O)[C@@H]1O` [E-RESVERATROLOSIDE]: the pIC50 was 3.00 in test [1] and 4.00 in test [2].
The matching figures for `Oc1cc(O)cc(/C=C/c2ccc(O)c(O)c2)c1` [PICEATANNOL]: 4.55 and 5.74.
For the molecule `OC[C@H]1O[C@@H](Oc2cc(O)cc(/C=C/c3ccc(O)cc3)c2)[C@H](O)[C@@H](O)[C@@H]1O` [PICEID], the pIC50 in test [1] was 3.70; in test [2], 4.72.
Turning to `Oc1ccc(/C=C/c2cc(O)cc(O)c2)cc1` [RESVERATROL], the pIC50 is 4.14 in test [1] and 5.62 in test [2].
The matching figures for `Cc1c(C)c2c(c(C)c1O)CCC(C)(C(=O)O)O2` (stereo not given) [TROLOX]: 5.00 and 5.33.
The like results for `OC[C@H]1O[C@@H](Oc2cc(O)cc(/C=C\c3ccc(O)c(O)c3)c2)[C@H](O)[C@@H](O)[C@@H]1O` [Z-ASTRINGIN] were, in that order, 4.54 and 5.60.
The matching figures for `OC[C@H]1O[C@@H](Oc2cc(O)cc(/C=C\c3ccc(O)cc3)c2)[C@H](O)[C@@H](O)[C@@H]1O` [Z-PICEID]: 3.85 and 4.77.
Take `OC[C@H]1O[C@@H](Oc2ccc(/C=C\c3cc(O)cc(O)c3)cc2O)[C@H](O)[C@@H](O)[C@@H]1O` [Z-RESVERATROLOSIDE]: the pIC50 is below 3.00 in test [1] and 3.82 in test [2].
